Test results published in PubChem BioAssay (NCI).
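All cell lines were grown in 96-well plates and treated with compound for 48 hours. The concentration for 50% growth inhibition is given as GI50. TGI: concentration producing complete growth inhibition.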

Experiments:
Assay in all cases: NCI anticancer screen, dose series, 48 h
A549 NSCLC = tested on: A549 NSCLC
HL-60(TB) leukemia = tested on: HL-60(TB) leukemia
HS 578T breast = tested on: HS 578T breast
NCI-H460 lung = tested on: NCI-H460 lung
OVCAR-3 ovarian = tested on: OVCAR-3 ovarian
OVCAR-8 ovarian = tested on: OVCAR-8 ovarian
SK-MEL-2 melanoma = tested on: SK-MEL-2 melanoma
SK-MEL-5 melanoma = tested on: SK-MEL-5 melanoma
SNB-75 CNS = tested on: SNB-75 CNS
T-47D breast = tested on: T-47D breast

| Structure (SMILES) | TGI (A549 NSCLC) [µM] | TGI (HL-60(TB) leukemia) [µM] | TGI (HS 578T breast) [µM] | TGI (NCI-H460 lung) [µM] | TGI (OVCAR-3 ovarian) [µM] | TGI (OVCAR-8 ovarian) [µM] | TGI (SK-MEL-2 melanoma) [µM] | TGI (SK-MEL-5 melanoma) [µM] | TGI (SNB-75 CNS) [µM] | TGI (T-47D breast) [µM] | GI50 (A549 NSCLC) [µM] | GI50 (HS 578T breast) [µM] | GI50 (NCI-H460 lung) [µM] | GI50 (OVCAR-3 ovarian) [µM] | GI50 (OVCAR-8 ovarian) [µM] | GI50 (SK-MEL-2 melanoma) [µM] | GI50 (SK-MEL-5 melanoma) [µM] | GI50 (SNB-75 CNS) [µM] | GI50 (T-47D breast) [µM] | GI50 (HL-60(TB) leukemia) [µM] |
| --- | --- | --- | --- | --- | --- | --- | --- | --- | --- | --- | --- | --- | --- | --- | --- | --- | --- | --- | --- | --- |
| O=C1C=C(Br)c2c(-c3ccccc3)oc3cccc1c23 | > 100 | > 63.2 | > 100 | > 100 | > 100 | > 100 | > 100 | > 100 | 42.5 | > 100 |  |  |  |  |  |  |  |  |  |  |
| CCN(C(=O)N1CCN(c2cc3c(cc2F)c(=O)c(C(=O)O)cn3C2CC2)CC1)c1nc(-c2ccc(C)cc2)cs1 | > 100 |  | 4.28 | 11.9 | 2.47 | > 100 | 7.38 | > 100 | 5.08 | > 100 | 0.42 | 0.46 | 0.356 | 0.368 | 1.41 | 2.5 | 0.858 | 1.09 | 2.11 |  |
| O=C(/C(=C/c1ccc([N+](=O)[O-])cc1)c1ccccc1)c1ccccc1 | > 100 | 5.71 | > 100 | 5.93 | 5.64 |  |  |  | 7.32 | > 100 | 3.8 | 2.74 | 2.34 | 2.36 |  |  |  | 2.11 | 3.13 | 2.29 |
| O=c1[nH]c2ccccc2nc1-c1c[nH]c2ccccc12 | > 100 | > 100 | > 100 | > 100 | > 100 | > 100 | > 100 | > 100 | > 100 | > 100 | > 100 | 6.83 | > 100 | 9.57 | > 100 | > 100 | > 100 | 2.93 | 8.63 | > 100 |
| CN(C)CCCN1c2ccccc2CCc2ccc(Cl)cc21 | 23.2 | 13.2 | 77.1 | 19.1 | 23.1 | 23.6 | 7.51 | 2.9 | 8.77 | 10.6 | 9.27 | 10.6 | 4.46 | 9.17 | 8.23 | 3.01 | 1.54 | 1.7 | 3.26 | 3.63 |
| O=C(C1CCCCC1)[C@@H]1[C@]2(C(=O)NC3CCCCC32)[C@@H]2CCCN2[C@@]12C(=O)NC1CCC(Cl)CC12 (stereo partly drawn) | 379 | 176 | 422 | 308 | 210 | 394 | 321 | 234 | 256 | 279 | 135 | 153 | 134 | 78.2 | 162 | 147 | 110 | 58.1 | 107 | 35.3 |
| O=C(c1ccccc1)C(CN1CCOCC1)c1ccccc1 (stereo not drawn) | 14.9 | 5.57 | 8.37 | 7.76 | 1.66 | 3.22 | 3.39 | 3.77 | 12 | 9.87 | 3.94 | 1.77 | 2.51 | 0.465 | 1.52 | 1.67 | 1.76 | 2.29 | 3 | 1.95 |
| Cc1cc(N/N=C/c2nc(-c3ccc(Br)cc3)oc2C)c2cc(Cl)ccc2n1 | > 100 | > 100 | > 100 | > 100 | > 100 | > 100 | > 100 | > 100 | > 100 | > 100 | > 100 | > 100 | > 100 | > 100 | > 100 | > 100 | > 100 | > 100 | > 100 | > 100 |
| COc1cc2c(cc1OCCCCOc1cc3c(cc1OC)C(=O)N1CCC[C@H]1CN3)N=C[C@@H]1CCCN1C2=O | > 100 |  | 2.63 | > 100 | 6.38 | > 33.1 | > 100 | 1.62 | 16.9 | > 100 | 9.21 | 0.823 | 2.92 | 2.05 | 3.37 | 0.826 | 0.463 | 3.58 | 0.512 |  |
| O=C(/C(=C/c1ccccc1)CN1CCCCC1)c1ccccc1 | 3.92 | 10.2 | 65.6 | 4.91 | 2.16 | 4.29 | 4.01 | 2.94 | 17.8 | 3.2 | 1.84 | 5.03 | 2.05 | 0.679 | 0.616 | 1.6 | 1.43 | 3.76 | 0.801 | 1.22 |
| CCCCNCC(=O)O[C@]1(CC)C(=O)OCc2c1cc1n(c2=O)Cc2cc3ccccc3nc2-1 | 26.7 | 0.314 | > 100 | 1.68 | 12.8 |  | 8.76 | 1.27 | 3.44 | 2.44 |  |  |  |  |  |  |  |  |  |  |
| CC(CN1CCN(CCOCCO)CC1)CN1c2ccccc2Sc2ccc(Cl)cc21 (stereo not drawn) | 12.4 | 4.01 | 20.1 | 5.35 | 12.7 | 18.9 | 3.63 | 3.07 |  | 22.6 | 3.05 | 3.44 | 2.36 | 3.62 | 4.99 | 1.87 | 1.69 |  | 6.22 | 1.76 |
| CC(C)(C)c1ccc(OCCCCCCN2CCNCC2)cc1 | 21.2 | 4.32 | 25.1 | 11.4 | 20.8 | 33.5 |  | 3.49 | 16 | 5.94 | 6.95 | 6.15 | 3.21 | 7.38 | 14.6 |  | 1.87 | 3.12 | 2.22 | 1.98 |
| O=C1c2ccccc2-c2c1c1ccc([N+](=O)[O-])cc1c(=O)n2CCCBr | > 100 | > 100 |  |  | > 100 | > 100 | > 100 |  | > 100 | > 100 | > 100 |  |  | > 100 | > 100 | > 100 |  | > 100 | > 100 | > 100 |
| CCN=C1C=CC(=C(c2ccc(N)cc2)c2ccc(N(CC)CC)c(C)c2)C=C1 | 12.9 | 0.841 | 5.1 | 1.18 | 1.26 |  | 0.943 | 0.44 | 0.65 | 1.34 | 0.337 | 0.278 | 0.287 | 0.368 |  | 0.303 | 0.208 | 0.204 | 0.222 | 0.304 |
| CC(C)(C)c1n[nH]c(=S)n(/N=C/c2ccc(F)c(Oc3ccccc3)c2)c1=O | > 100 | > 100 | 85.8 | > 100 | 95.7 | > 100 |  | 42.4 | > 100 | > 100 | 33.9 | 31.4 | 31 | 28.3 | 25.6 |  | 19.9 | 32.5 | 55.7 | 61.9 |
| c1ccc(SC(CCCCC(Sc2ccccc2)Sc2ccccc2)Sc2ccccc2)cc1 | > 100 | > 100 |  | > 100 | > 100 | > 100 | > 100 | > 100 | > 100 |  |  |  |  |  |  |  |  |  |  |  |
| CCN1CCC(CCOC)(CN2c3ccccc3Sc3ccc(Cl)cc32)C1 (stereo not drawn) | 3.56 |  | 6.55 | 3.58 | 4.1 | 4.14 | 4.74 | 3.07 | 5.8 | 4.6 | 1.9 | 2.12 | 1.9 | 1.88 | 2.07 | 2.54 | 1.69 | 2.25 | 2.05 |  |
| c1ccc2c(c1)c(NCCCCN1CCCCC1)cc1c3ccccc3c(NCCCCN3CCCCC3)cc21 | 56.6 | > 100 | 68.6 | 53.7 | 87.2 | 47.2 | > 100 | 31.4 |  |  | 21.8 | 27.5 | 18.3 | 19.5 | 21.2 | 69.3 | 15.1 |  |  | 19.7 |
| COC1CC(OS(=O)(=O)c2ccc(C)cc2)C(OC(=O)c2ccccc2)C(C)O1 (stereo not drawn) | > 100 | > 100 |  | > 100 | > 10 | > 100 | > 100 | > 100 | > 100 |  | > 100 |  | > 100 |  | > 100 | > 100 | > 100 | > 10 |  | > 100 |
| COC(=O)C(Cc1ccccc1)NC(=O)NC(=O)NC(=O)CI (stereo not drawn) | 38.9 |  | > 100 | 50.1 | 8.89 | 15.9 | 30.7 | 29 | 36.7 | 8.5 | 20.2 | 34.3 | 22.6 | 2.97 | 4.3 | 16.4 | 15.5 | 16.2 | 2.71 |  |
| Cc1ccc(-c2cc(-c3ccc(C)cc3)nc(NCCNc3ccnc4cc(Cl)ccc34)n2)cc1 | 3.53 | 4.15 |  | 3.7 | 3.15 | 3.88 | 3.63 | 3.44 | 3.02 | 3.6 | 1.74 |  | 1.91 | 1.66 | 1.88 | 1.9 | 1.83 | 1.48 | 1.74 | 2 |
| C/C(=N\Nc1ccc2ccccc2n1)c1ccccn1 | 11.1 |  | 30.5 | 3.71 | 4.24 | 12.8 | 9.01 | 2.24 | 17.6 | 3.2 | 0.0841 | 1.94 | < 0.0507 | < 0.0192 | < 0.0492 | 0.263 | 0.103 | 0.123 | < 0.0332 |  |
| O=C1OC(CCCl)(c2ccccc2)CC1CN1CCOCC1 (stereo not drawn) | > 100 | 26.5 |  | > 100 | 32.1 | 38.5 | 57.5 | 41.7 | 51.7 |  |  |  |  |  |  |  |  |  |  |  |
| COc1ccc(OC)c(NC(=O)CCC/C(CC(=O)c2ccc(O)c(OC)c2)=N\NC(=O)C[N+](C)(C)C)c1 | > 100 | > 100 |  | > 100 | > 100 | > 100 | > 100 | > 100 | > 100 |  |  |  |  |  |  |  |  |  |  |  |
| Cc1cc(N(CCC#N)CCC#N)ccc1/C=C/C(=O)Nc1cccc(Cl)c1 | > 100 | > 100 |  | > 100 | > 100 | > 100 | > 100 | > 100 | > 100 |  |  |  |  |  |  |  |  |  |  |  |
| CCOC(=O)C(C)(c1cn(C)c2ccccc12)c1cn(C)c2ccccc12 | > 100 | > 100 |  | > 100 | > 100 | > 100 | > 100 | > 100 | 51.9 |  |  |  |  |  |  |  |  |  |  |  |
| COc1cccc(NC(=O)c2sc3nc4c(cc3c2N)CN(Cc2ccccc2)CC4)c1 | 53.8 |  | 23 | 30.9 | 26.9 | 85.2 | 44.5 | 31.9 | 4.71 | 47.3 | 3.79 | 2.14 | 4.18 | 7.53 | 4.45 | 10.3 | 2.15 | 1.73 | 4.62 |  |
| Cn1c2c(cc(S(=O)(=O)c3ccccc3)c1=O)CCc1c-2cnn1-c1ccc(Cl)cc1 |  | > 100 | 7.61 |  | 5.67 | 6.22 | 5.9 |  | 4.02 | 5.5 |  | 2.72 |  | 2.45 | 2.73 | 2.56 |  | 1.93 | 2.06 | > 100 |
| N#Cc1c(N/N=C/c2c(Cl)cccc2Cl)nc(N)nc1N1CCOCC1 | > 100 |  | 82.1 | > 100 | > 100 | > 100 | 81.8 | 24 | > 100 | > 100 | 19.1 | 13.3 | 5.32 | 3.6 | 60.6 | 8.3 | 3.71 | 35.5 | 48 |  |
